Tests used:
Bacillus = test: Compound was evaluated for the inhibition of Leucine dehydrogenase of Bacillus species; conditions: concentration not given here
Sporosarcina = test: Compound was evaluated for the inhibition of Phenylalanine dehydrogenase of Sporosarcina species; conditions: concentration not given here

Row | Structure (SMILES) | inhibition (Bacillus) [%] | inhibition (Sporosarcina) [%]
1 | COCO[C@@H](C)C(=O)C(=O)O | 93 | 
2 | C[C@@H](O)[C@H](N)C(=O)O |  | 61
3 | COCO[C@H](C)C(=O)C(=O)O | 8 | 
4 | C[C@H](O)[C@H](N)C(=O)O |  | 53

From ChEMBL document CHEMBL1131786, “Synthesis of probes for the active site of leucine dehydrogenase” (Bioorg Med Chem Lett, 1999)
